Assay results taken from US20250186439A1, “PYK2 INHIBITION MODULATES IMMUNE CELL FUNCTION” (The Children's Medical Center Corporation, priority 2022, published 2025).
“Also recorded” adds a separate entry of the source.

Experiments:
MG6 cells = test: Phagocytosis of pHrodo Red E. coli BioParticles by MG6 cells (confocal, IMARIS spot analysis); assay type: cell-based, mouse; conditions: 1000 nM, 24 h
Description: FIGS. 5A-5D. Characteristics of Pyk2 inhibition on phagocytotic activity in microglia. FIG. 5A: Immunofluorescent imaging depicting phagocytosis of pHrodo Red E. coli BioParticles by MG6 cells after exposure to Pyk2 inhibitors. MG6 cells were either untreated (left) or treated with 1000 nM Pyk2 inhibitor treatment for 24 hours (right). Immunofluorescent images were obtained via confocal microscopy (×600). MG6 cells were fixed and stained with phalloidin-AlexaFluor488 to visualize actin, and with DAPI to visualize nuclei (encircled). Scale bar is 20 μm. […] FIG. 5B: Immunofluorescent imaging depicting phagocytosis of pHrodo Red E. coli BioParticles by mononucleated and multinucleated MG6 cells after exposure to Pyk2 inhibitors. MG6 cells were treated and imaged as in FIG. 5A. After obtaining three-dimensional images, BioParticles are quantified by a spot analysis using IMARIS software (bottom figures). FIG. 5C: Quantification of spot analysis in FIG. 5B. The output of IMARIS spot analysis was analyzed using one-way ANOVA. […] FIG. 5D: Phagocytotic activity for Aβ in MG6 cells. Immunostaining for Iba1 and Aβ in control and Pyk2 inhibitor treated group. MG6 cells were treated with Pyk2 inhibitor or vehicle for 24 hours and then Hilite-555 labelled Aβ42 was added for 24 hours. Data are representative images of four wells from three independent experiments. A 20 μm scale bar is in the bottom-left corner.
To assess whether or not Pyk2 inhibitor treated, multinuclear MG6 cells were also more phagocytic, treated MG6 cells were subsequently exposed to pHrodo Red E. coli BioParticles (Thermo Fisher Scientific #P35360), a fluorogenic phagocytic substrate derived from Escherichia coli. […] To assess if there was any difference in the phagocytosis of mononucleated and multinucleated MG6 cells, treated cells were assessed via confocal microscopy to generate three-dimensional images of phagocytosed particles, which were then quantified using IMARIS cell imaging software (FIG. 5B).

Raw264.7 = test: RANKL-induced osteoclast differentiation of Raw264.7 cells (TRAP activity and staining); assay type: cell-based, mouse; conditions: for TRAP activity: listed as Pyk2 inhibitor
Description: FIGS. 8A-8F. Effect of Pyk2 inhibition on RANKL induced osteoclast differentiation. FIG. 8A: Schematic depicting the experimental design for testing the effect of Pyk2 inhibition on RANKL-induced osteoclast differentiation. On day 1, Raw264.7 macrophages are pretreated with Pyk2 inhibitor and then treated on day 2 with fresh culture medium comprising 100 ng/mL RANKL to stimulate differentiation to osteoclasts. The quantity of mature, differentiated osteoclasts is measured by tartrate-resistant acid […] (TRAP) activity on day 6. FIG. 8B: TRAP activity of mature, differentiated osteoclasts treated as described in FIG. 8A. […] FIG. 8C: Phase-contrast microscope images of TRAP-stained osteoclasts, treated as described in FIG. 8A, at ×20 magnification. FIG. 8D: Schematic depicting the experimental design for testing the effect of Pyk2 inhibition on RANKL-induced osteoclast differentiation. On day 2, Raw264.7 macrophages are treated with fresh culture medium comprising 100 ng/mL RANKL to stimulate differentiation to osteoclasts, then are subsequently treated on day 3 with Pyk2 inhibitor. FIG. 8E: TRAP activity of mature, differentiated osteoclasts treated as described in FIG. 8D. […] FIG. 8F: Phase-contrast microscope images of TRAP-stained osteoclasts, treated as described in FIG. 8D, at ×20 magnification.
To explore this question, an Abelson leukemia virus transformed monocyte/macrophage-like cell line derived from BALB/c mice, Raw264.7, was used. To induce differentiation to osteoclasts, Raw264.7 cells were treated with receptor activator of nuclear factor kappa-B ligand (RANKL), also known as osteoclast differentiation factor (ODF). Raw264.7 cells and differentiated osteoclasts were treated with Pyk2 inhibitor, as in Example 2.
Raw264.7 cells were cultured and treated with Pyk2 inhibitors after 24 hours, then differentiated into osteoclasts after 24 hours of Pyk2 inhibitor treatment (FIG. 8A). Four days after differentiation into osteoclasts, the cells were then assessed for tartrate-resistant acid phosphatase (TRAP) activity and presence, as TRAP is a biomarker expressed by mature, differentiated osteoclasts, but not undifferentiated progenitor cells.
Therefore, the effect of Pyk2 inhibition was also assessed by culturing RAW264.7 cells, differentiating into osteoclasts after 2 days, the treating with Pyk2 inhibitor for 24 hours, 1 day after differentiating (FIG. 8D). […] Therefore, Pyk2 inhibition could ultimately result in an increase in bone mass.

microglia = test: β-amyloid (Aβ42) brain infusion assay, microglia response in vivo; design: species or system mouse; conditions: intracerebroventricular infusion before Aβ42 infusion
Source text: FIGS. 9A-9B. FIG. 9A. Aβ brain infusion assay system. Using osmotic pump implanted to mice, an experimental system using intracerebroventricular injection was established to validate the morphological and molecular changes of microglia in response to Aβ42 in vivo. FIG. 9B. Activated microglia in the vicinity of amyloid plaques. Pyk2 inhibitor was infused into Iba1-EGFP transgenic mouse brain for 3 days and then Hylite-555 labelled-AP42 was infused into the brain using osmotic pump for the next 3 days. A 20 μm scale bar is in the bottom-left corner.
To test the morphological and molecular changes of microglia in response to Aβ42 in vivo a β-amyloid brain infusion assay was performed. An in vivo experimental system for […] was established with brain infusion pump inserted to left cerebral ventricle and treated Pyk2 inhibitor for 24 hours before Aβ42 infusion (FIG. 9A).

SMILES: CN(c1ccccc1CNc1nc(Nc2ccc3c(c2)CC(=O)N3)ncc1C(F)(F)F)S(C)(=O)=O [PF-431396]
- phagocytic activity, treated mononuclear and multinuclear microglia combined vs controls (MG6 cells): significantly higher
- phagocytosis of pHrodo Red E. coli BioParticles, mononucleated treated cells vs control (MG6 cells; listed as Pyk2 inhibitor): no significant difference
- phagocytosis of pHrodo Red E. coli BioParticles, multinucleated treated cells vs control/mononucleated (MG6 cells; listed as Pyk2 inhibitor): statistically significant increase; also recorded: significantly higher
- TRAP activity (Raw264.7; 1000 nM for 24 hours, 1 day after RANKL): statistically significant reduction; also recorded: significantly reduced
- TRAP staining (Raw264.7; inhibitor for 24 hours, 1 day after RANKL): apparent reduction
- TRAP activity (Raw264.7; inhibitor pretreatment (up to 1000 nM) before RANKL): not statistically significant; also recorded: no significant differences
- TRAP staining (Raw264.7; inhibitor pretreatment before RANKL): did not reveal any obvious difference
- expression of MHC class II molecules (e.g., H2-D1 and H2-K1) in microglia (microglia): increased expression
- phagocytic activity near amyloid plaques (microglia): enhanced
- proportion of activated microglia (microglia; listed as Pyk2 inhibitor): a significant proportion of microglia were activated; also recorded: significantly larger proportion
